This experiment deals with L1210 leukemia ip in BDF1 mice, survival T/C. As to the kind of experiment: NCI In Vivo Anticancer Drug Screen. Data for tumor model L1210 Leukemia (intraperitoneal) in B6D2F1 (BDF1) mice. The settings on record: endpoint: mean survival time, higher = longer survival. The procedure, abridged: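 In this screen, tumor-bearing mice given compound are compared to those given vehicle, and their survival values are reported as a treated-to-control quotient.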

The mark [1] stands for this setting: dose: 50.0 mg/kg/injection, schedule: Q01DX009 (ip), vehicle: saline with Tween-80.
[2] abbreviates: dose: 100.0 mg/kg/injection, schedule: Q01DX009 (ip), vehicle: saline with Tween-80.
Where [3] appears, read: dose: 100.0 mg/kg/injection, schedule: Q01DX009 (ip), vehicle: saline.
Setting [4] is: dose: 200.0 mg/kg/injection, schedule: Q01DX009 (ip), vehicle: saline.
Setting [5] is: dose: 400.0 mg/kg/injection, schedule: Q01DX009 (ip), vehicle: saline.
[6] abbreviates: dose: 100.0 mg/kg/injection, schedule: Q01DX001 (ip), vehicle: saline.
Setting [7] is: dose: 100.0 mg/kg/injection, schedule: Q04DX002 (ip), vehicle: Klucel (hydroxypropylcellulose) (HPC).
Setting [8] is: dose: 200.0 mg/kg/injection, schedule: Q04DX002 (ip), vehicle: Klucel (hydroxypropylcellulose) (HPC).
Where [9] appears, read: dose: 400.0 mg/kg/injection, schedule: Q04DX002 (ip), vehicle: Klucel (hydroxypropylcellulose) (HPC).
[10] abbreviates: dose: 100.0 mg/kg/injection, schedule: Q04DX003 (ip), vehicle: saline with Tween-80.
[11] abbreviates: dose: 200.0 mg/kg/injection, schedule: Q04DX003 (ip), vehicle: saline with Tween-80.
[12] abbreviates: dose: 400.0 mg/kg/injection, schedule: Q04DX003 (ip), vehicle: saline with Tween-80.
The mark [13] stands for this setting: dose: 50.0 mg/kg/injection, schedule: Q01DX001 (ip), vehicle: saline.
Where [14] appears, read: dose: 200.0 mg/kg/injection, schedule: Q01DX001 (ip), vehicle: saline.
[15] abbreviates: dose: 400.0 mg/kg/injection, schedule: Q01DX001 (ip), vehicle: saline.

Several values for one entry are separate records, joined by “and”; a condition that tells them apart may be missing. Identical values can stand only once. Inconclusive results and toxic doses are left out.

Turning to `CSc1nnc(C)c(=O)[nH]1`, the T/C is 100 % of control (dose: 100.0 mg/kg/injection, schedule: Q01DX001 (ip), vehicle: saline with Tween-80); 102 % of control (dose: 200.0 mg/kg/injection, schedule: Q01DX001 (ip), vehicle: saline with Tween-80); 97 % of control (dose: 400.0 mg/kg/injection, schedule: Q01DX001 (ip), vehicle: saline with Tween-80).
Turning to `O=C(Nc1ccccc1)OC1CCC2CC21` (stereo unspecified), the T/C by setting is: under setting [1], 91 % of control; under setting [2], 87 % of control.
In the case of `CCN(CC)CC#N`, the T/C runs as follows: (dose: 1.0 mg/kg/injection, schedule: Q01DX009 (ip), vehicle: saline) 97 % of control; (dose: 2.0 mg/kg/injection, schedule: Q01DX009 (ip), vehicle: saline) 99 % of control; (dose: 4.0 mg/kg/injection, schedule: Q01DX009 (ip), vehicle: saline) 95 % of control; (dose: 8.0 mg/kg/injection, schedule: Q01DX009 (ip), vehicle: saline) 100 % of control.
Regarding `NCC1OC(OC2C(CO)OC(OC3C(O)C(N)CC(N)C3OC3OC(CO)C(O)CC3N)C2O)C(N)C(O)C1OC1OC(CO)C(O)C(O)C1O` (stereo unspecified), the T/C (dose: 100.0 mg/kg/injection, schedule: Q01DX005 (ip), vehicle: saline) was 96 % of control; the T/C under setting [3] is 100 % of control; the T/C (dose: 200.0 mg/kg/injection, schedule: Q01DX005 (ip), vehicle: saline) was 101 % of control; the T/C under setting [4] is 110 % of control; the T/C (dose: 400.0 mg/kg/injection, schedule: Q01DX005 (ip), vehicle: saline) was 101 % of control; the T/C under setting [5] was 100 % of control.
On to `COC(=O)/C(C)=N\N=C(N)N`, for which the T/C (dose: 15.0 mg/kg/injection, schedule: Q01DX Z (ip), vehicle: carboxymethylcellulose (CMC)) is 104 % of control; the T/C (dose: 30.0 mg/kg/injection, schedule: Q01DX Z (ip), vehicle: carboxymethylcellulose (CMC)) is 92 % of control; the T/C (dose: 60.0 mg/kg/injection, schedule: Q01DX Z (ip), vehicle: carboxymethylcellulose (CMC)) is 103 % of control; the T/C (dose: 120.0 mg/kg/injection, schedule: Q01DX Z (ip), vehicle: carboxymethylcellulose (CMC)) was 97 % of control; the T/C (dose: 240.0 mg/kg/injection, schedule: Q01DX Z (oral), vehicle: carboxymethylcellulose (CMC)) was 100 % of control; the T/C (dose: 480.0 mg/kg/injection, schedule: Q01DX Z (oral), vehicle: carboxymethylcellulose (CMC)) was 96 % of control. In addition, the T/C reads like this: (dose: 960.0 mg/kg/injection, schedule: Q01DX Z (oral), vehicle: carboxymethylcellulose (CMC)) 100 % of control; (dose: 1920.0 mg/kg/injection, schedule: Q01DX Z (oral), vehicle: carboxymethylcellulose (CMC)) 98 % of control.
For `S=C1CCNCC1`, the T/C (dose: 100.0 mg/kg/injection, schedule: Q04DX003 (ip), vehicle: saline) was 88 % of control.
On to `C=CCN(CC=C)P(=O)(N(CC=C)CC=C)N1CC1`, for which the T/C is 151 % of control (dose: 3.0 mg/kg/injection, schedule: Q01DX015 (ip), vehicle: saline); 117 % of control (dose: 5.0 mg/kg/injection, schedule: Q01DX001 (ip), vehicle: saline); 155 % of control (dose: 5.0 mg/kg/injection, schedule: Q01DX015 (ip), vehicle: saline); 173 % of control (dose: 7.0 mg/kg/injection, schedule: Q01DX015 (ip), vehicle: saline); 117 % of control (dose: 10.0 mg/kg/injection, schedule: Q01DX001 (ip), vehicle: saline); 178 % of control (dose: 11.0 mg/kg/injection, schedule: Q01DX015 (ip), vehicle: saline). The T/C under setting [6] was 175 % of control.
Turning to `COc1cccc(/C=C/[N+](=O)[O-])c1OCc1ccccc1`, the T/C (dose: 12.5 mg/kg/injection, schedule: Q04DX003 (ip), vehicle: saline with Tween-80) is 117 % of control; the T/C (dose: 25.0 mg/kg/injection, schedule: Q04DX003 (ip), vehicle: saline with Tween-80) was 95 % of control; the T/C (dose: 50.0 mg/kg/injection, schedule: Q04DX003 (ip), vehicle: saline with Tween-80) was 111 % of control.
With `CN(C)N=Nc1ccc(S(=O)(=O)N(CCCl)CCCl)cc1`, the T/C by setting is: (dose: 12.5 mg/kg/injection, schedule: Q04DX002 (ip), vehicle: Klucel (hydroxypropylcellulose) (HPC)) 100 % of control; (dose: 25.0 mg/kg/injection, schedule: Q04DX002 (ip), vehicle: Klucel (hydroxypropylcellulose) (HPC)) 96 % of control; (dose: 50.0 mg/kg/injection, schedule: Q04DX002 (ip), vehicle: Klucel (hydroxypropylcellulose) (HPC)) 103 % of control; under setting [7], 120 % of control; under setting [8], 103 % of control; under setting [9], 95 % of control.
As to `COc1ccc(CC(=O)NCCc2ccccc2)cc1OC`, the T/C (dose: 12.5 mg/kg/injection, schedule: Q01DX009 (ip), vehicle: saline with Tween-80) is 92 % of control; the T/C (dose: 25.0 mg/kg/injection, schedule: Q01DX009 (ip), vehicle: saline with Tween-80) is 92 % of control; the T/C under setting [1] was 103 % of control and 92 % of control; the T/C under setting [2] is 105 % of control.
For `COc1ccc(/C=C(\C#N)c2ccc(C)cc2)cc1OC`, the T/C under setting [10] was 102 % of control, the T/C under setting [11] was 100 % of control and the T/C under setting [12] was 100 % of control.
As to `CCCn1ncc(=O)[nH]c1=O`, the T/C runs as follows: under setting [1], 96 % of control; under setting [2], 112 % of control; (dose: 200.0 mg/kg/injection, schedule: Q01DX009 (ip), vehicle: saline with Tween-80) 103 % of control.
Take `[N-]=[N+]=Nc1nc2c(N)ncnc2n1C1OC(CO)C(O)C1O` (stereo unspecified): the T/C (dose: 25.0 mg/kg/injection, schedule: Q01DX001 (ip), vehicle: saline) was 102 % of control; the T/C under setting [13] is 105 % of control; the T/C under setting [6] is 103 % of control.
In the case of `Cc1ccc(CC(=O)c2c(C)[nH]c3ccccc23)cc1C`, the T/C was 108 % of control under setting [13], 96 % of control under setting [6], 96 % of control under setting [14] and 96 % of control under setting [15].
For the compound `COc1cc(/C=N/Nc2ccc([N+](=O)[O-])cc2)cc(OC)c1OC`, the T/C is 86 % of control under setting [10], 89 % of control under setting [11] and 86 % of control under setting [12].
Consider `O=[As](O)(c1cccc(Cl)c1)c1cccc(Cl)c1`, for which the T/C (dose: 75.0 mg/kg/injection, schedule: Q01DX001 (ip), vehicle: saline) is 105 % of control.
`COc1ccc(OC)c(NC(=O)c2cccc(N(CCO)CCO)c2)c1`: the T/C runs as follows: (dose: 100.0 mg/kg/injection, schedule: Q01DX001 (ip), vehicle: carboxymethylcellulose (CMC)) 102 % of control; (dose: 200.0 mg/kg/injection, schedule: Q01DX001 (ip), vehicle: carboxymethylcellulose (CMC)) 94 % of control; (dose: 400.0 mg/kg/injection, schedule: Q01DX001 (ip), vehicle: carboxymethylcellulose (CMC)) 94 % of control.
For the compound `Cc1ccc(NC(=O)OCCN(CCOC(=O)Nc2ccc(C)cc2)c2cccc(C)c2)cc1`, the T/C reads like this: under setting [6], 94 % of control; under setting [14], 90 % of control; under setting [15], 94 % of control.
For the compound `Nc1cc([N+](=O)[O-])cnc1NCCc1ccccc1`, the T/C is 97 % of control under setting [10], 98 % of control under setting [11] and 104 % of control under setting [12].
For `COc1cc(/C=C2\C(O)C3CCN2CC3)cc(OC)c1OC` (stereo unspecified), the T/C is 115 % of control (dose: 100.0 mg/kg/injection, schedule: Q04DX002 (ip), vehicle: saline) and 118 % of control (dose: 200.0 mg/kg/injection, schedule: Q04DX002 (ip), vehicle: saline).
In the case of `CC(C)OC(=O)NN1CCCCCC1`, the T/C was 92 % of control under setting [7], 105 % of control under setting [8] and 96 % of control under setting [9].
Consider `O=C(NC1OCC(O)C(O)C1O)Oc1ccccc1` (stereo unspecified), for which the T/C was 108 % of control under setting [3]; 97 % of control (dose: 100.0 mg/kg/injection, schedule: Q04DX003 (ip), vehicle: water); 97 % of control under setting [4]; 96 % of control (dose: 200.0 mg/kg/injection, schedule: Q04DX003 (ip), vehicle: water); 101 % of control under setting [5]; 100 % of control (dose: 400.0 mg/kg/injection, schedule: Q04DX003 (ip), vehicle: water).
